In patent publication US9375006B2, “5- halogenopyrazole benzofuranyl carboxamides” (BAYER CROPSCIENCE AG, priority 2012, dated 2016) one finds Eff. % and logP data, which are given here for seven compounds.

Data set [1] concerns Fusarium nivale (var. majus). Nature of the data set: Fusarium nivale (var. majus) test (wheat) / preventive. It is filed as in vivo. The conditions noted are these: 500 ppm of active ingredient, evaluated 5 days after inoculation. The text has this:
Solvent: 49 parts by weight of N,N-dimethylacetamide Emulsifier: 1 part by weight of alkylaryl polyglycol ether […] To test for preventive activity, young plants are sprayed with the preparation of active compound or active compound combination at the stated rate of application. After the spray coating has been dried, the plants are slightly injured by using a sandblast and afterwards they are sprayed with a conidia suspension of Fusarium nivale (var. majus). The plants are placed in the greenhouse under a translucent incubation cabinet at a temperature of approximately 10° C. and a relative atmospheric humidity of approximately 100%.

Data set [2] concerns Phakopsora pachyrhizi. Nature of the data set: In vivo Phakopsora test (soybeans) / preventive. The conditions noted are these: 10 ppm of active ingredient, evaluated 7 days after inoculation.
The nature of data set [3]: logP by HPLC on reversed phase columns (EEC directive 79/831 Annex V.A8). It is filed as physicochemical. The settings on record: method [a]: LC-MS at pH 2.7, 0.1% formic acid in water / acetonitrile. As to the method: Measurement of log P values was performed according EEC directive 79/831 Annex V.A8 by HPLC (High Performance Liquid Chromatography) on reversed phase columns with the following methods: ^[a] Measurement of LC-MS was done at pH 2.7 with 0.1% formic acid in water and with acetonitrile (contains 0.1% formic acid) as eluent with a linear gradient from 10% acetonitrile to 95% acetonitrile. ^[b] Measurement with LC-MS was done at pH 7.8 with 0.001 molar ammonium hydrogen carbonate solution in water as eluent with a linear gradient from 10% acetonitrile to 95% acetonitrile.

Data set [4] has as its system Botrytis cinerea. Nature of the data set: In vivo preventive test on Botrytis cinerea (grey mould), gherkin plants. The settings on record: 500 ppm, preventive spray, grading 4 to 5 days after contamination. The procedure: (§1) The active ingredients tested are prepared by homogenization in a mixture of acetone/tween/DMSO and then diluted with water to obtain the desired active material concentration.
(§2) Gherkin plants (“Vert petit de Paris” variety), sown in starter cups on a 50/50 peat soil-pozzolana substrate and grown at 24° C., are treated at the Z11 cotyledon stage by spraying with the active ingredient prepared as described above. Plants, used as controls, are treated with the mixture of acetone/tween/DMSO/water not containing the active material.
After 24 hours, the plants are contaminated by spraying the cotyledons with an aqueous suspension of cryopreserved Botrytis cinerea spores (50 000 spores per ml). The spores are suspended in a nutrient solution composed of 10 g/L of PDB, 50 g/L of D-Fructose, 2 g/L of NH4NO3 and 1 g/L of KH2PO4. The contaminated gherkin plants are incubated at 17° C. and at 90% relative humidity.
Grading (% of efficacy) is carried out 4 to 5 days after the contamination, in comparison with the control plants.

In data set [5] the test system is Pyrenophora teres. Nature of the data set: In vivo preventive test on Pyrenophora teres (net blotch on barley). The conditions noted are these: 500 ppm, barley plants, preventive spray, grading 14 days after contamination. As to the method: Barley plants (“Plaisant” variety), sown in starter cups on a 50/50 peat soil-pozzolana substrate and grown at 22° C., are treated at the 1-leaf stage (10 cm height) by spraying with the active ingredient prepared as described above. Plants, used as controls, are treated with the mixture of acetone/tween/DMSO/water not containing the active material. After 24 hours, the plants are contaminated by spraying the leaves with an aqueous suspension of Pyrenophora teres spores (12 000 spores per ml). The spores are collected from a 12-day-old culture. The contaminated barley plants are incubated for 48 hours at 20° C. and at 100% relative humidity, and then for 12 days at 20° C. at 70-80% relative humidity. Grading (% of efficacy) is carried out 14 days after the contamination, in comparison with the control plants.

Data set [6] concerns Septoria tritici. Nature of the data set: In vivo preventive test on Septoria tritici (leaf spot on wheat). The conditions noted are these: 500 ppm, wheat plants, preventive spray, grading 24 days after contamination. As to the method: Wheat plants (“Scipion” variety), sown in starter cups on a 50/50 peat soil-pozzolana substrate and grown at 22° C., are treated at the 1-leaf stage (10 cm height) by spraying with the active ingredient prepared as described above. Plants, used as controls, are treated with the mixture of acetone/tween/DMSO/water not containing the active material. After 24 hours, the plants are contaminated by spraying the leaves with an aqueous suspension of cryopreserved Septoria tritici spores (500 000 spores per ml). The contaminated wheat plants are incubated for 72 hours at 18° C. and at 100% relative humidity, and then for 21 days at 90% relative humidity. Grading (% of efficacy) is carried out 24 days after the contamination, in comparison with the control plants.

The test system of data set [7] is Sphaerotheca fuliginea. Nature of the data set: In vivo preventive test on Sphaerotheca fuliginea (powdery mildew on cucurbits). The conditions noted are these: 500 ppm, gherkin plants, preventive spray, grading 12 days after contamination. As to the method:
as §1, §2
After 24 hours, the plants are contaminated by spraying the cotyledons with an aqueous suspension of Sphaerotheca fuliginea spores (100 000 spores per ml). The spores are collected from infected plants. The contaminated gherkin plants are incubated at about 20° C. and at 70-80% relative humidity.
(§3) Grading (% of efficacy) is carried out 12 days after the contamination, in comparison with the control plants.

The test system of data set [8] is Uromyces appendiculatus. Nature of the data set: In vivo preventive test on Uromyces appendiculatus (bean rust). The settings on record: 500 ppm, bean plants, preventive spray, grading 11 days after contamination. As to the method: (§4) The active ingredients tested are prepared by homogenization in a mixture of acetone/tween/DMSO, and then diluted with water to obtain the desired active material concentration.
Bean plants (“Saxa” variety), sown in starter cups on a 50/50 peat soil-pozzolana substrate and grown at 24° C., are treated at the 2-leaf stage (9 cm height) by spraying with the active ingredient prepared as described above. Plants, used as controls, are treated with the mixture of acetone/tween/DMSO/water not containing the active material.
After 24 hours, the plants are contaminated by spraying the leaves with an aqueous suspension of Uromyces appendiculatus spores (150 000 spores per ml). The spores are collected from infected plants and are suspended in water containing 2.5 ml/l of Tween 80 at 10%. The contaminated bean plants are incubated for 24 hours at 20° C. and at 100% relative humidity, and then for 10 days at 20° C. and at 70-80% relative humidity.
Grading (% of efficacy) is carried out 11 days after the contamination, in comparison with the control plants.

Data set [9] relates to Alternaria brassicae. Description: In vivo preventive test on Alternaria brassicae (leaf spot on radish). The settings on record: 500 ppm, radish plants, preventive spray, grading 6 days after contamination. The procedure:
Radish plants (“Pernod Clair” variety), sown in starter cups on a 50/50 peat soil-pozzolana substrate and grown at 17° C., are treated at the cotyledon stage by spraying with the active ingredient prepared as described above. Plants, used as controls, are treated with the mixture of acetone/tween/DMSO/water not containing the active material. After 24 hours, the plants are contaminated by spraying the cotyledons with an aqueous suspension of Alternaria brassicae spores (50 000 spores per ml). The spores are collected from a 15-day-old culture. The contaminated radish plants are incubated at 20° C. and at 100% relative humidity. Grading (% of efficacy) is carried out 6 days after the contamination, in comparison with the control plants.

The test system of data set [10] is Puccinia recondita. Nature of the data set: In vivo preventive test on Puccinia recondita (brown rust on wheat). The settings on record: 500 ppm, wheat plants, preventive spray, grading 12 days after contamination. As to the method:
as §4
Wheat plants (“Scipion” variety), sown in starter cups on a 50/50 peat soil-pozzolana substrate and grown at 22° C., are treated at the 1-leaf stage (10 cm height) by spraying with the active ingredient prepared as described above. Plants, used as controls, are treated with the mixture of acetone/tween/DMSO/water not containing the active material.
After 24 hours, the plants are contaminated by spraying the leaves with an aqueous suspension of Puccinia […] spores (100 000 spores per ml). The spores are collected from an infected plant and are suspended in water containing 2.5 ml/l of Tween 80 at 10%. The contaminated wheat plants are incubated for 24 hours at 20° C. and at 100% relative humidity, and then for 10 days at 20° C. and at 70-80% relative humidity.
as §3

Regarding `Cn1nc(C(F)F)c(C(=O)Nc2cccc3c2C(C)(C)OC3(C)C)c1F` [Example 1], the Eff. % in data set [1] turned out to be 92%.

For `Cn1nc(C(F)F)c(C(=O)Nc2cccc3c2C(C)(C)OC3(C)C)c1Cl` [Example 2], the Eff. % in [2] came to 96%; in [1], 86%.

With `CCC1(CC)OC(C)c2c(NC(=O)c3cn(C)nc3C(F)F)cccc21` (stereo not drawn) [Example 6], in data set [3], the logP was 2.9[a]. Also, the Eff. % was found to be 100% in data set [4]; 92% in [5]; 100% in data set [6]; 100% in [7]; 100% in [8].

For `CCC1(CC)OC(C(C)C)c2c(NC(=O)c3c(C(F)F)nn(C)c3F)cccc21` (stereo not drawn) [Example 8], in data set [3], the logP is 4.06[a]. The Eff. % in data set [9] is listed as 83%; in [10], 98%; in [6], 86%; in [7] it was 100%; in data set [8], 100%.

On to `CCC1(CC)OC(C)c2c(NC(=O)c3c(C(F)F)nn(C)c3Cl)cccc21` (stereo not drawn) [Example 9], for which the logP in data set [3] was 3.48[a]. In addition, the Eff. % in data set [10] came to 100%; in data set [6] it was 93%; in data set [7], 94%; in [8], 100%.

Regarding `CCC1(CC)OC(C(C)C)c2c(NC(=O)c3cn(C)nc3C(F)F)cccc21` (stereo not drawn) [Example 12], the logP in [3] was 3.63[a]. The Eff. % in data set [9] was 78%; in data set [10], 94%; in data set [6], 86%; in [7] it was 100%; in [8] it was 100%.

On to `CCC1(CC)OC(C)c2c(NC(=O)c3c(C(F)F)nn(C)c3F)cccc21` (stereo not drawn) [Example 13], for which the logP in [3] is 3.27[a]. Also, the Eff. % was 100% in data set [4]; 83% in data set [5]; 100% in data set [10]; 79% in data set [6]; 100% in [7]; 100% in data set [8].
